# Measurements reported in ChEMBL document CHEMBL5325394, “What We Have Gained from Ibogaine: α3β4 Nicotinic Acetylcholine Receptor Inhibitors as Treatments for Substance Use Disorders” (J Med Chem, 2023).
# pIC50, pKi: −log10 of the molar value. Where a SMILES comes first, the peptide text is derived from it. Bridges are numbered along the chain shown (N, C = ends).
# Tests used:
# [1] = target: T1, Neuronal acetylcholine receptor subunit alpha-7 (Homo sapiens, UniProt P36544); test: Antagonist activity at alpha7 nAChRs in human SH-SY5Y cells assessed as increase in intracellular calcium level by FLIPR assay; type: cell-based
# T1 sequence (P36544 whole entry): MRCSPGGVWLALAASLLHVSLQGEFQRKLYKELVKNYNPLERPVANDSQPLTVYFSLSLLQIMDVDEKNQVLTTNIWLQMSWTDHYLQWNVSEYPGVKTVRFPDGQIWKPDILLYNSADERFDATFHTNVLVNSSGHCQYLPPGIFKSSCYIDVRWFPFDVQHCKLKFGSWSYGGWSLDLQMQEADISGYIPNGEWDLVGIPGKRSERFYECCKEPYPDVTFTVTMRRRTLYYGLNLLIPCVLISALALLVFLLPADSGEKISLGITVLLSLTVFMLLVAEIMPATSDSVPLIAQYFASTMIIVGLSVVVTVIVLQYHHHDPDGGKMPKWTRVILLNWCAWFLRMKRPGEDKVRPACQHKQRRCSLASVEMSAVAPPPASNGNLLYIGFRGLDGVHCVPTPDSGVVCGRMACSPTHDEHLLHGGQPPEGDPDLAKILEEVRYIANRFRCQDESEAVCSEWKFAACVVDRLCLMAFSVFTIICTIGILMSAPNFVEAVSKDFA
# [2] = target: T1, Neuronal acetylcholine receptor subunit alpha-7; test: Antagonist activity at alpha7 nAChRs (unknown origin) assessed as inhibition constant
# [3] = target: T2, Neuronal acetylcholine receptor; alpha4/beta2 (Homo sapiens, UniProt P17787+P43681); test: Antagonist activity at alpha4beta2 nAChRs (unknown origin) assessed as inhibition constant; type: protein-complex assay
# T2 sequence (P17787 whole entry): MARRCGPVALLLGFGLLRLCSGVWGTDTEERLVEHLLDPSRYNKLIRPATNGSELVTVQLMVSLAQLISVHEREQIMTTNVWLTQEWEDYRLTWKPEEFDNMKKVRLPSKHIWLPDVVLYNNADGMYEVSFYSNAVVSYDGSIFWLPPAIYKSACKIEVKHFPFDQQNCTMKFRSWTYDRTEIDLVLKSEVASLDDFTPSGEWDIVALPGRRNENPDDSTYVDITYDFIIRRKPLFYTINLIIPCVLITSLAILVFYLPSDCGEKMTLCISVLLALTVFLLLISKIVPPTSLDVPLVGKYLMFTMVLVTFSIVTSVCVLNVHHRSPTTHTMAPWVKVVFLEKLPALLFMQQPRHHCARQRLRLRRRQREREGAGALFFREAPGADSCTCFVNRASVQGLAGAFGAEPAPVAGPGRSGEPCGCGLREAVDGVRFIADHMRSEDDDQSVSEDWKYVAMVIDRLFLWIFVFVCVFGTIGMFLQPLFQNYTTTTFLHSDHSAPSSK
# T2 sequence (P43681 whole entry): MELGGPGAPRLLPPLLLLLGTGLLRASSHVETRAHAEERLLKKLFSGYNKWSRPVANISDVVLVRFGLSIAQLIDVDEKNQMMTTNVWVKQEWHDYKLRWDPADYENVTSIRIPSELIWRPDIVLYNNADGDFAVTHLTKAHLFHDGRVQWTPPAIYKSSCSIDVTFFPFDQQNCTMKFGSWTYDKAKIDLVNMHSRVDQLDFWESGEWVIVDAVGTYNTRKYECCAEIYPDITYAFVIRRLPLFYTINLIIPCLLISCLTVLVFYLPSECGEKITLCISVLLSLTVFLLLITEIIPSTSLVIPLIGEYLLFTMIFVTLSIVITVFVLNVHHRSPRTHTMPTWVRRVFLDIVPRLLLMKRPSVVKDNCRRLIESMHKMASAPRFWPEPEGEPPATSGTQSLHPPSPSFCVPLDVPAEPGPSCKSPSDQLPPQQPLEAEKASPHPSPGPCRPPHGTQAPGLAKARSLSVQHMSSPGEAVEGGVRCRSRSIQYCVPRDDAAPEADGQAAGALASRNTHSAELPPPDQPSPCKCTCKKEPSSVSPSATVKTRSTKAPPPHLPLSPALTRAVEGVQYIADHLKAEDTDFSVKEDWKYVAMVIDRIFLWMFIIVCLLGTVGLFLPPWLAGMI
# [4] = target: T2, Neuronal acetylcholine receptor; alpha4/beta2; test: Antagonist activity at alpha4beta2 nAChR (unknown origin); type: protein-complex assay
# [5] = target: Serotonin 3 (5-HT3) receptor; test: Antagonist activity at 5-HT3 receptor (unknown origin); type: protein-complex assay, Homo sapiens
# [6] = target: T3, Muscarinic acetylcholine receptor M5 (Homo sapiens, UniProt P08912); test: Antagonist activity at muscarinic M5 receptor (unknown origin); type: functional
# T3 sequence (P08912 whole entry): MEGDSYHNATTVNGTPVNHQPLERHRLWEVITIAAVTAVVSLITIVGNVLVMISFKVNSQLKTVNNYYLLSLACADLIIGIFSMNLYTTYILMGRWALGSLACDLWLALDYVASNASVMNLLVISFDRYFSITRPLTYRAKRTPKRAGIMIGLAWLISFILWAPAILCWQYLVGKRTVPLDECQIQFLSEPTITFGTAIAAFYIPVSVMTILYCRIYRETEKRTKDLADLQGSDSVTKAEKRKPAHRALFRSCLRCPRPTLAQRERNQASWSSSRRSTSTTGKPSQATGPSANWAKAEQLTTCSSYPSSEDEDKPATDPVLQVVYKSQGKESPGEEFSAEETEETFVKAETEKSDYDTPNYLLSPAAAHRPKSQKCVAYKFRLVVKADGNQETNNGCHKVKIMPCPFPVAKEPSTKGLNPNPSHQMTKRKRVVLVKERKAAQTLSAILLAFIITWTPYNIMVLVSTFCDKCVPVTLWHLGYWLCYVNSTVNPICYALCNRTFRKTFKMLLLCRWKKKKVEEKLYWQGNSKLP
# [7] = target: Neuronal acetylcholine receptor; alpha4/beta2 (Rattus norvegicus, UniProt P09483+P12390); test: Binding affinity to rat alpha4beta2 nAChR expressed in HEK cells assessed as inhibition constant measured after 2 hrs in the presence of [3H]epibatidine; type: cell-based
# Sequence of Neuronal acetylcholine receptor; alpha4/beta2 (Rattus norvegicus, UniProt P09483+P12390) (P09483 whole entry): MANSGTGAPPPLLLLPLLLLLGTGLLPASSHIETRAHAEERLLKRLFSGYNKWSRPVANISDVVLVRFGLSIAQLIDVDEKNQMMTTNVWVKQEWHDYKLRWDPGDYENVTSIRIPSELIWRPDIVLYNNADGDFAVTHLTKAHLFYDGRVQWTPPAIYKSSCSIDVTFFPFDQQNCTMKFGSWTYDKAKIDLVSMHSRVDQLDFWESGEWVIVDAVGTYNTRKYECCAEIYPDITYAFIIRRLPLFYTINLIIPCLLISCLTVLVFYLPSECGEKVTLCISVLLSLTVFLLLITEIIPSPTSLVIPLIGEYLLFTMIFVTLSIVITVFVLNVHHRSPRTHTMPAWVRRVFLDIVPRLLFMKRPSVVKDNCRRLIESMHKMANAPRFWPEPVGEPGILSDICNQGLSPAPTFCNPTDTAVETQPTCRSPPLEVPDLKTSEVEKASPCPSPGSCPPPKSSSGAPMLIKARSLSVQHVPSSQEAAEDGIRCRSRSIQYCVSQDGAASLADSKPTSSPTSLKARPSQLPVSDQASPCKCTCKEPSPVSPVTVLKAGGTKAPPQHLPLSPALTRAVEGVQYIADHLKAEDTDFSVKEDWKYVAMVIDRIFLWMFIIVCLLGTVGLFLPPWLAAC
# Sequence of Neuronal acetylcholine receptor; alpha4/beta2 (Rattus norvegicus, UniProt P09483+P12390) (P12390 whole entry): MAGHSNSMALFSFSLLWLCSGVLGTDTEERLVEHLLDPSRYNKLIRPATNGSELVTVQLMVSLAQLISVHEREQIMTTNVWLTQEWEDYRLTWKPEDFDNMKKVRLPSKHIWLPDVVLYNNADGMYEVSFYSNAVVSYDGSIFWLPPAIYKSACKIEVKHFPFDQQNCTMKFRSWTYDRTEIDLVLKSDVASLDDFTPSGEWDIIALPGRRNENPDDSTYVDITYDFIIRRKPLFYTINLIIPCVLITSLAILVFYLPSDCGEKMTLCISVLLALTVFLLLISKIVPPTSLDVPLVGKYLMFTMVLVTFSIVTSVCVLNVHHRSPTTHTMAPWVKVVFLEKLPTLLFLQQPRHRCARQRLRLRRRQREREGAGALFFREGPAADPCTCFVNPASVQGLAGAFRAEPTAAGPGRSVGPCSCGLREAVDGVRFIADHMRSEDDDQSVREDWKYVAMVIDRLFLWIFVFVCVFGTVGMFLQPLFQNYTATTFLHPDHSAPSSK
# [8] = target: Sigma intracellular receptor 2 (Homo sapiens, UniProt Q5BJF2); test: Antagonist activity at sigma 2 receptor (unknown origin)
# [9] = target: Neuronal acetylcholine receptor subunit alpha-7 (Rattus norvegicus, UniProt Q05941); test: Binding affinity to rat alpha7 nAChR expressed in HEK cells assessed as inhibition constant measured after 2 hrs in the presence of [3H]epibatidine; type: cell-based
# Sequence of Neuronal acetylcholine receptor subunit alpha-7 (Rattus norvegicus, UniProt Q05941) (Q05941 whole entry): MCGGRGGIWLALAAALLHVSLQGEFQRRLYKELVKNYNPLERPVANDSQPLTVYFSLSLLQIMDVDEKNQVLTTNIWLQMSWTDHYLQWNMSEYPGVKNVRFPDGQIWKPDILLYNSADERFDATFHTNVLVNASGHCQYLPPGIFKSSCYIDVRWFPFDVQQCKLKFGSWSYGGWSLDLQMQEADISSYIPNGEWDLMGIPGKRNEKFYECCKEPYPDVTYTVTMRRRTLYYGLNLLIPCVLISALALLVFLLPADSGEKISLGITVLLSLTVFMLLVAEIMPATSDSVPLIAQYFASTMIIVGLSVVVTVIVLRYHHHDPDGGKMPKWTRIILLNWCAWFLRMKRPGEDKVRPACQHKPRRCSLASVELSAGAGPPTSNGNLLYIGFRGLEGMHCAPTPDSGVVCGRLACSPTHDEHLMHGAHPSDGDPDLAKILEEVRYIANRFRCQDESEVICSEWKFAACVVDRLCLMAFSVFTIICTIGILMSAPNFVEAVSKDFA
# Histamine H1 receptor = Histamine H1 receptor (Homo sapiens, UniProt P35367); test: Antagonist activity at H1 receptor (unknown origin)
# [10] = target: T1, Neuronal acetylcholine receptor subunit alpha-7; test: Antagonist activity at nAChR alpha7 in human SH-SY5Y cells assessed as increase in intracellular calcium level preincubated for 10 mins followed by choline addition measured after 30 mins by FLIPR assay; type: cell-based
# [11] = target: T4, Neuronal acetylcholine receptor; alpha3/beta4 (Homo sapiens, UniProt P30926+P32297); test: Antagonist activity at nAChR alpha3beta4 in human SH-SY5Y cells assessed as increase in intracellular calcium level preincubated for 10 mins followed by nicotine addition measured after 30 mins by FLIPR assay; type: cell-based
# T4 sequence (P30926 whole entry): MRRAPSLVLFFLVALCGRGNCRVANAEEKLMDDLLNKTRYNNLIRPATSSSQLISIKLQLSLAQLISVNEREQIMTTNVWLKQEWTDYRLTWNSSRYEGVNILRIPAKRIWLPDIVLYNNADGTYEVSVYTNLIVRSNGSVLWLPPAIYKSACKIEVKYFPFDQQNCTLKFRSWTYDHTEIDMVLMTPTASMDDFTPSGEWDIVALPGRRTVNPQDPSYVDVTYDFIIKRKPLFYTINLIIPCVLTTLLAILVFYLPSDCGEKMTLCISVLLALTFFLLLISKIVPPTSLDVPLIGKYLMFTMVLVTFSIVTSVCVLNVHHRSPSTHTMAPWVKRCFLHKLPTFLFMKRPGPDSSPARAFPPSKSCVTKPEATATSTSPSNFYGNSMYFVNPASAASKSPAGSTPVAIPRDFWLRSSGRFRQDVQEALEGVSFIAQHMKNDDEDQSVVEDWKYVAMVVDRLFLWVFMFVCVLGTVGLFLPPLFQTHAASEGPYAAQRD
# T4 sequence (P32297 whole entry): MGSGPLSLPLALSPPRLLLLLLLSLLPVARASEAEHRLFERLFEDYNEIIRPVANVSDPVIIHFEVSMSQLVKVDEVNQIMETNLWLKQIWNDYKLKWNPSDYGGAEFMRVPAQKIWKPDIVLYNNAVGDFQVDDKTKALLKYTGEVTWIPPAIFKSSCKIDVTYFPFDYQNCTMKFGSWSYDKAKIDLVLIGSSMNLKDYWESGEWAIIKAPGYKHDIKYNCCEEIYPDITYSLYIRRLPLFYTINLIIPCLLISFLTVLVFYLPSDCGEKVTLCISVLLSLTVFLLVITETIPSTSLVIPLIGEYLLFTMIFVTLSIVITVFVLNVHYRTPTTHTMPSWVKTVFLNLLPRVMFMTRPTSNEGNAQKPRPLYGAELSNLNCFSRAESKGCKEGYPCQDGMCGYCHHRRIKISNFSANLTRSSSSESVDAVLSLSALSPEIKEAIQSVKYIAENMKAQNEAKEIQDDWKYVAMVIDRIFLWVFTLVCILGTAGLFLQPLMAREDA
# [12] = Displacement of [3H]-MK801 from bovine cortex NMDA receptor assessed as inhibition constant; type: tissue-based, Bos taurus
# [13] = target: T4, Neuronal acetylcholine receptor; alpha3/beta4; test: Antagonist activity at recombinant alpha3beta4 nAChR in HEK293 cells by voltage-clamp based electrophysiological method; type: cell-based
# Mu-type opioid receptor = Mu-type opioid receptor (Bos taurus, UniProt P79350); test: Displacement of [3H]-DAGO from calf cortex MOR receptor assessed as inhibition constant; type: tissue-based
# Sequence of Mu-type opioid receptor (P79350 whole entry): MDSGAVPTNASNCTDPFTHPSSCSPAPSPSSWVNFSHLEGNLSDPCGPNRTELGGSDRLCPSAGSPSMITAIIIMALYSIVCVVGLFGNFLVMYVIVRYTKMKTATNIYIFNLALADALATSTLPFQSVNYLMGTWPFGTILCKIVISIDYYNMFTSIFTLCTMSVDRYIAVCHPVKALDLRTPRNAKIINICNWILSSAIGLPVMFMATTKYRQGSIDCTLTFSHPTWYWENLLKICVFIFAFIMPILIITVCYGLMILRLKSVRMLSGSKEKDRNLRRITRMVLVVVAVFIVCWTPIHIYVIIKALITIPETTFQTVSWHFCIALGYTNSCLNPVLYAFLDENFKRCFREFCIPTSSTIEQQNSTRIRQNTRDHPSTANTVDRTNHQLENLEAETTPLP
# [14] = Displacement of [3H]-paroxetine from bovine brain stem 5-HT receptor assessed as inhibition constant; type: tissue-based, Bos taurus, Brainstem
# [15] = target: T2, Neuronal acetylcholine receptor; alpha4/beta2; test: Antagonist activity at alpha4beta2 nAChR in HEK293 cells by voltage-clamp based electrophysiological method; type: cell-based
# [16] = Displacement of [3H]-GR-65,630 from 5-HT3 receptor in mouse NG-108 cells assessed as inhibition constant; type: cell-based; details: ng-108 cell
# [17] = Displacement of [3H]-BTX-B from bovine cortex sodium channel assessed as inhibition constant; type: tissue-based, Bos taurus
# [18] = Displacement of [3H]-DPDPE from calf caudate nucleus DOR receptor assessed as inhibition constant; type: tissue-based, Bos taurus
# [19] = target: Sigma intracellular receptor 2 (Bos taurus, UniProt Q3MHW7); test: Displacement of [3H]-DTG from calf hippocampus sigma 2 receptor assessed as inhibition constant; type: tissue-based
# Sequence of Sigma intracellular receptor 2 (Bos taurus, UniProt Q3MHW7) (Q3MHW7 whole entry): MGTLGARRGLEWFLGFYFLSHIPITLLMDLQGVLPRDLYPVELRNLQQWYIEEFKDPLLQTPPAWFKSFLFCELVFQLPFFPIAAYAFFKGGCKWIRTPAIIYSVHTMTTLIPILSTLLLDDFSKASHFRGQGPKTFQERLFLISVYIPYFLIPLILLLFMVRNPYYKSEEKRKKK
# [20] = target: T4, Neuronal acetylcholine receptor; alpha3/beta4; test: Displacement of [3H]Ibogaine from human alpha3beta4 nAChRs expressed in HEK293 cells assessed as inhibition constant incubated for 2 hrs by scintillation counter analysis; type: cell-based
# [21] = target: T5, Muscarinic acetylcholine receptor M1 (Bos taurus, UniProt Q8WMX0); test: Displacement of [3H]-pirenzepine from calf cortex Muscarinic M1 receptor assessed as inhibition constant; type: tissue-based
# T5 sequence (Q8WMX0 whole entry): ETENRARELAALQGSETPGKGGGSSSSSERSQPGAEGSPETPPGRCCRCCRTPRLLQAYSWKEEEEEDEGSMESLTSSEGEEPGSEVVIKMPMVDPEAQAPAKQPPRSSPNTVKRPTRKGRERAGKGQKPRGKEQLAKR
# [22] = target: T4, Neuronal acetylcholine receptor; alpha3/beta4; test: Inhibition of alpha3beta4 (unknown origin) by electrophysiology assay; type: protein-complex assay
# [23] = target: T1, Neuronal acetylcholine receptor subunit alpha-7; test: Inhibition of nAChR alpha7 (unknown origin) by electrophysiology assay
# [24] = target: T2, Neuronal acetylcholine receptor; alpha4/beta2; test: Inhibition of nAChR alpha4beta2 (unknown origin) by electrophysiology assay; type: protein-complex assay
# [25] = target: Neuronal acetylcholine receptor; alpha3/beta2 (Homo sapiens, UniProt P17787+P32297); test: Inhibition of nAChR alpha3beta2 (unknown origin) by electrophysiology assay; type: protein-complex assay
# Sequence of Neuronal acetylcholine receptor; alpha3/beta2 (P17787 whole entry): as the sequence (P17787 whole entry) above
# Sequence of Neuronal acetylcholine receptor; alpha3/beta2 (P32297 whole entry): as the sequence (P32297 whole entry) above
smiles,measurement,setting,value
"CC[C@H](C)[C@@H]1NC(=O)[C@H](CC(N)=O)NC(=O)[C@@H]2CCCN2C(=O)[C@H](CC(N)=O)NC(=O)[C@H](CC(N)=O)NC(=O)[C@H](C(C)C)NC(=O)[C@H](CCCNC(=N)N)NC(=O)[C@@H]2CSSC[C@H](NC(=O)CNC(=O)[C@@H](N)CO)C(=O)N[C@@H](CSSC[C@@H](C(=O)O)NC1=O)C(=O)N[C@@H](CO)C(=O)N[C@@H](CC(N)=O)C(=O)N1CCC[C@H]1C(=O)N[C@@H](C)C(=O)N2 (H-SGCCSNPACRVNNPNIC-OH; disulfide 3-9, 4-17)",pIC50,[1],< 8.00
CNC1(C)[C@H]2CC[C@H](C2)C1(C)C (mixture of isomers),pKi,[2],5.16
same,pKi,[3],5.60
CN1C2CCCC1CC(Nc1ccccc1Br)C2 (configuration not stated),pIC50,[4],6.52
same,pIC50,[5],6.22
same,pIC50,[6],6.49
same,pKi,[7],6.32
same,pIC50,[8],6.38
same,pKi,[9],6.65
same,pIC50,Histamine H1 receptor,6.70
"CC[C@H](C)[C@@H]1NC(=O)[C@H](CC(N)=O)NC(=O)[C@@H]2CCCN2C(=O)[C@H](CC(N)=O)NC(=O)[C@H](CC(C)C)NC(=O)[C@H](C(C)C)NC(=O)[C@H](CCCNC(=N)N)NC(=O)[C@@H]2CSSC[C@H](NC(=O)CNC(=O)[C@@H](N)CO)C(=O)N[C@@H](CSSC[C@@H](C(=O)O)NC1=O)C(=O)N[C@@H](CO)C(=O)N[C@@H](CC(N)=O)C(=O)N1CCC[C@H]1C(=O)N[C@@H](C)C(=O)N2 (H-SGCCSNPACRVLNPNIC-OH; disulfide 3-9, 4-17)",pIC50,[10],5.59
same,pIC50,[11],6.20
CC[C@H]1C[C@@H]2C[C@H]3c4[nH]c5ccc(OC)cc5c4CC[N@@](C2)[C@@H]13,pKi,[12],8.51
same,pIC50,[13],6.66
same,pKi,Mu-type opioid receptor,8.70
same,pKi,[14],8.39
same,pIC50,[15],6.00
same,pKi,[16],8.59
same,pKi,[17],8.44
same,pKi,[18],< 8.00
same,pKi,[19],9.40
same,pKi,[20],8.98
same,pKi,[21],7.80
C[C@@H]1NC(=O)[C@H](Cc2ccccc2)NC(=O)[C@@H]2CSSC[C@H](NC(=O)CN)C(=O)N[C@@H](CSSC[C@@H](C(N)=O)NC(=O)[C@H](CC(=O)O)NC(=O)[C@@H]3CCCN3C(=O)[C@H](CC(N)=O)NC(=O)[C@H]([C@@H](C)O)NC1=O)C(=O)N[C@@H](CO)C(=O)N[C@@H](Cc1ccc(O)cc1)C(=O)N1CCC[C@H]1C(=O)N1CCC[C@H]1C(=O)N2,pIC50,[22],6.11
same,pIC50,[23],< 4.00
same,pIC50,[24],< 4.00
same,pIC50,[25],< 4.00
